{
  "source": "patent US20100273656A1",
  "about": "“COMPOSITION AND METHOD FOR SELECTIVE HERBICIDE” (priority 2002, published 2010)",
  "key": {"dandelions [1]": {"test_system": "dandelions", "assay": "Example 1 field test of iron chelates, dandelion damage", "assay_type": "in vivo, Taraxacum officinale", "conditions": "sprayed once at 100 ml/m^2, 5 days after spraying", "protocol": "(§1) The following non-limiting examples serve to further describe the invention. Unless otherwise specified, all of the iron solutions were made using the same molar concentration of iron ion as chelating agent. All of the outside tests were done on areas of mixed grass and dandelions that were at least 2 months old. For the greenhouse tests, dandelions were grown in a commercial greenhouse mix, using supplemental lighting and heating. Each plant was grown in a 2¼ inch pot to a minimum diameter of 20 cm. All of the solutions were sprayed onto the plants at a rate of 100 ml/m^2. The ferrous sulfate formulations that were used in examples 1, 2, 8 and 9 contained 1% iron (180 mM), 18 mM EDTA, 1% citric acid and 0.5% urea. In all of the examples, the amount of iron is identified in brackets as the percent iron on a weight basis.\n(§2) All plant damage was assessed using a qualitative rating scale from 0 to 9.\n(§3) All of the iron chelates were sprayed once at 0.2% Fe^+3 (35.8 mM), at a volume of 100 ml/m^2 onto 0.5 m^2 areas of mixed grass and dandelions. The spraying of the test was followed by 2 days of rain-free weather. Observations were made 5 days after spraying."}, "[2]": {"test_system": "dandelions (Taraxacum officinale)", "assay": "Example 9 lawn restoration, dandelion coverage", "assay_type": "in vivo", "protocol": "(§4) Na4EDTA was added to the ferrous sulfate solution at 1.5% (36 mM). The molar level of EDTA is 1/10 that of the iron ions. […] The urea is added as a nitrogen fertilizer source to encourage the growth of the grasses."}, "grass [3]": {"test_system": "grass", "assay": "Example 1 field test of iron chelates, grass damage", "assay_type": "in vivo", "conditions": "field, sprayed once at 100 ml/m^2, 5 days after spraying", "protocol": "as §1, §2, §3"}, "dandelions [4]": {"test_system": "dandelions", "assay": "Example 7 potassium nonanoate with FeHEDTA, greenhouse dandelions", "assay_type": "in vivo, Taraxacum officinale", "conditions": "for Dead Plants (#/10): 8 + 5 days after spraying", "protocol": "as §1, §2\nThis test compared the damaged caused by combinations of fatty acid and FeHEDTA. FeHEDTA was used at a concentration to 35.8 mM. The treatment with 0.1% Fe contained twice the molar amount of chelating agent as iron. The treatment with 0.2% iron contained the same molar amount of chelating agent as iron Potassium nonanoate (KC9) was used at 0.84%. The plants were re-sprayed 8 days after the first spray."}, "grass [5]": {"test_system": "grass", "assay": "Example 9 lawn restoration, grass coverage and damage", "assay_type": "in vivo", "conditions": "after 18 days, sprayed twice", "protocol": "as §4"}, "[6]": {"test_system": "daisy plants (Bellis perennis BELPE)", "assay": "Example 8 field daisy test of iron solutions", "assay_type": "in vivo", "conditions": "0.5 L/m^2, 6 days after spraying", "protocol": "as §1"}, "grass [7]": {"test_system": "grass", "assay": "Example 2 field test of FeEDDS and FeHEDTA at pH 3 and 7, grass", "assay_type": "in vivo", "conditions": "solution pH 2.6-3.0; field, 0.1 L/m^2, 4 days after spraying", "protocol": "as §1, §2\n(§5) The FeEDDS and FeHEDTA solutions contained 0.2% Fe^+3 (35.8 mM). The ferrous sulfate contained 1% Fe^+2 (179.1 mM). The solutions were sprayed at a rate of 0.1 L/m^2 onto 2 plots of 0.5 m^2 of mixed grass and dandelions. Observations were made 4 days after spraying."}, "dandelions [8]": {"test_system": "dandelions", "assay": "Example 2 field test of FeEDDS and FeHEDTA at pH 3 and 7, dandelion", "assay_type": "in vivo, Taraxacum officinale", "conditions": "solution pH 2.6-3.0, 0.1 L/m^2, 4 days after spraying", "protocol": "as §1, §2, §5"}, "dandelions [9]": {"test_system": "dandelions", "assay": "Example 3 FeSO4, EDTA, EDDS and MH combinations on potted dandelions", "assay_type": "in vivo, Taraxacum officinale", "conditions": "for Plant Death (%) Dandelion: 3 days after second spray; for Plant Damage (0 to 9) Dandelion: 3 days after second spray (re-sprayed after 9 days)", "protocol": "as §1, §2\n(§6) This test investigated the effect of 10% chelation and pH on potted grass and dandelions. All of the solutions contained 10% ferrous sulfate heptahydrate, resulting in a Fe^+2 concentration of 2% (358.1 mM). EDTA and EDDS were added at 1/10th of the iron molar concentration (35.8 mM). MH was added 1%. The dandelions and turf grasses were sow in separate pots 3 weeks prior to the start of the test.\n(§7) The plants were re-sprayed after 9 days."}, "turf grasses": {"test_system": "turf grasses", "conditions": "for Plant Death (%) Grass: 3 days after second spray; for Plant Damage (0 to 9) Grass: 3 days after second spray (re-sprayed after 9 days)", "protocol": "as §1, §2, §6, §7"}, "dock (Rumex crispus)": {"test_system": "dock (Rumex crispus)", "assay": "Example 9 lawn restoration, dock coverage", "assay_type": "in vivo", "conditions": "after 18 days, sprayed twice", "protocol": "as §4"}},
  "note": "Like-named read-outs stand apart in the source and are kept apart here.",
  "data": [
    {"smiles": "O=S(=O)([O-])[O-].[Fe+2]", "note": "[FeSO4, ferrous sulfate]", "values": [
      {"measurement": "Dandelion Damage (0 to 9)", "setting": "dandelions [1]", "value": "6.3 0 to 9"},
      {"measurement": "effect on dandelion (and dock) in the plots, in words", "setting": "[2]; Example 9, text", "value": "did not appear to reduce the area covered by dandelions"},
      {"measurement": "Plot Area Covered (%) By: Dandelion", "setting": "[2]; after 18 days, sprayed twice", "value": 65, "unit": "%"},
      {"measurement": "Grass Damage (0 to 9)", "setting": "grass [3]", "value": 7},
      {"measurement": "Plant Damage (0 to 9)", "setting": "dandelions [4]; 8 + 5 days after spraying (re-sprayed after 8 days), listed as FeSO4 (0.2% Fe^+2)", "value": "0.2 0 to 9"},
      {"measurement": "Plant Damage (0 to 9)", "setting": "dandelions [4]; 8 + 5 days after spraying (re-sprayed after 8 days), listed as FeSO4 (1% Fe^+2)", "value": "7.2 0 to 9"},
      {"measurement": "Plant Damage (0 to 9)", "setting": "dandelions [4]; 8 + 5 days after spraying (re-sprayed after 8 days), listed as FeSO4 (2% Fe^+2)", "value": "8.4 0 to 9"},
      {"measurement": "Dead Plants (#/10)", "setting": "dandelions [4]; listed as FeSO4 (0.2% Fe^+2)", "value": "0 #/10"},
      {"measurement": "Dead Plants (#/10)", "setting": "dandelions [4]; listed as FeSO4 (1% Fe^+2)", "value": "5 #/10"},
      {"measurement": "Dead Plants (#/10)", "setting": "dandelions [4]; listed as FeSO4 (2% Fe^+2)", "value": "8 #/10"},
      {"measurement": "Plant Damage (0 to 9)", "setting": "dandelions [4]; 7 days after spraying, listed as FeSO4 (0.2% Fe^+2)", "value": "0.8 0 to 9"},
      {"measurement": "Plant Damage (0 to 9)", "setting": "dandelions [4]; 7 days after spraying, listed as FeSO4 (1% Fe^+2)", "value": "4.4 0 to 9"},
      {"measurement": "Plant Damage (0 to 9)", "setting": "dandelions [4]; 7 days after spraying, listed as FeSO4 (2% Fe^+2)", "value": "6.2 0 to 9"},
      {"measurement": "Grass Damage (0 to 9)", "setting": "grass [5]", "value": 1},
      {"measurement": "Plot Area Covered (%) By: Grass", "setting": "grass [5]", "value": 20, "unit": "%"},
      {"measurement": "Daisy Mortality (%)", "setting": "[6]", "value": 6, "unit": "%"},
      {"measurement": "Grass Damage (0 to 9)", "setting": "grass [7]", "value": "7.0 0 to 9"},
      {"measurement": "Dandelion Damage (0 to 9)", "setting": "dandelions [8]", "value": "7.0 0 to 9"},
      {"measurement": "Plant Death (%) Dandelion", "setting": "dandelions [9]; pH 3", "value": 76, "unit": "%"},
      {"measurement": "Plant Damage (0 to 9) Dandelion", "setting": "dandelions [9]; pH 3", "value": "8.2 0 to 9"},
      {"measurement": "Plant Death (%) Dandelion", "setting": "dandelions [9]; pH 6", "value": 17, "unit": "%"},
      {"measurement": "Plant Damage (0 to 9) Dandelion", "setting": "dandelions [9]; pH 6", "value": "6.0 0 to 9"},
      {"measurement": "Plant Death (%) Grass", "setting": "turf grasses; pH 3", "value": 0, "unit": "%"},
      {"measurement": "Plant Damage (0 to 9) Grass", "setting": "turf grasses; pH 3", "value": 4},
      {"measurement": "Plant Death (%) Grass", "setting": "turf grasses; pH 6", "value": 0, "unit": "%"},
      {"measurement": "Plant Damage (0 to 9) Grass", "setting": "turf grasses; pH 6", "value": 0},
      {"measurement": "Plot Area Covered (%) By: Dock", "setting": "dock (Rumex crispus)", "value": 14, "unit": "%"}
    ]}
  ]
}
